# Patent US11952374B2, “Bicyclic compounds” (Aligos Therapeutics, Inc., priority 2020, dated 2024)
# Like-named read-outs stand apart in the source and are kept apart here.
# Tests used:
# [1] = system: HBV; experiment: HBV-DNA antiviral assay using HepG2.117 cells (intracellular HBV DNA by qPCR); format: cell-based, HBV genotype D
# Experimental: (§1) The following assay procedure describes the HBV antiviral assay, using HepG2.117 cells, which carry a stably integrated genotype D HBV genome under the control of a Tet-off promoter, and intracellular HBV DNA quantification as endpoint. Cell viability is assessed in parallel by measuring the intracellular ATP content using CellTiter-Glo 2.0 (Promega).
# On day 0, HepG2.117 cells (which are maintained in routine cell culture with doxycycline present in the medium at a final concentration of 1 μg/mL) are seeded in 96-well plates (white with clear bottom) at a density of 2.0×10^4 cells/well (0.1 mL/well) in medium without doxycycline to induce pgRNA transcription and subsequent formation of HBV particles. The cells are incubated at 37° C. and 5% CO2.
# (§2) On day 1, medium is removed from each well, the test articles are diluted in culture medium without doxcycyline and 100 μL was added to cell culture wells (9 concentrations, 4-fold dilution). For each plate, 6 untreated (merely DMSO) wells are included. The final concentration of DMSO in the culture medium is 2%. Each plate is prepared in duplicate (one for HBV DNA extraction, one for CellTiter-Glo 2.0 measurement). The cells are incubated at 37° C. and 5% CO2 for 3 days.
# (§3) On day 4, cell viability is assessed using CellTiter-Glo 2.0 and cell lysates are prepared for HBV DNA extraction and subsequent quantification by qPCR.
# Medium is removed from each well and 100 μL of 0.33% NP-40 in H2O was added to each well. Plates are sealed, incubated at 4° C. for 5 mins, vortexed extensively and centrifuged briefly. Next, 35 μL of lysate is added to 65 μL QuickExtract DNA Extraction Solution (Epicentre) in a PCR plate for each well. PCR plate is incubated at 65° C. for 6 mins, 98° C. for 2 mins and finally cooled to 4° C. HBV DNA is then quantified by qPCR with HBV-specific primers and probes as specified in Table 2 using the Bio-Rad SSOAdvanced Universal Probes Supermix on a CFX96 machine (Bio-Rad). The PCR cycle program consisted of 95° C. for 3 mins, followed by 40 cycles at 95° C. for 10 sec and 60° C. for 30 sec.
# A DNA standard is prepared by dilution of an IDT gBlock corresponding to the amplicon with concentrations ranging from 10^A2 to 10^A8 copies/input (i.e. per 4 μL) and used to generate a standard curve by plotting Cq values vs. HBV DNA standard concentration. The quantity of HBV DNA in each sample is determined by interpolating from the standard curve.
# (§4) Cell viability is calculated as follows: % Cell viability=(luminescence value of test sample)/(average luminescence value of 2% DMSO control)×100%. HBV DNA inhibition was calculated as follows: 100−(HBV DNA copy number of test sample)/(average HBV DNA copy number of 2% DMSO control)×100%. No normalization to entecavir is required due to the excellent dynamic window of this assay. The CC50, EC50 and EC90 values were determined by dose-response curves fitted using non-linear regression.
# [2] = Cell viability by CellTiter-Glo 2.0 (intracellular ATP) in HepG2.117 cells; format: cell-based; settings: human, CellTiter-Glo 2.0, 3 days incubation
# Experimental: as §1, §2, §3
# (§5) Using the other plates, the cell viability is quantified by CellTiter-Glo 2.0 according to the manufacturer's manual. In brief, 100 μL of reagent solution is added to the culture plates and shaken for 2′. The plates are incubated at room temperature for 10 min and luminescence signal is subsequently measured on a VarioSkan Lux (ThermoFisher) plate reader.
# as §4
# [3] = system: HepG2.117 cells; experiment: as above; format: cell-based; settings: CellTiter-Glo 2.0, 3 days incubation
# Experimental: as §1, §2, §3, §5, §4
# [4] = Hepatitis B virus, 72 h, HBV DNA inhibition, HepG2.117 cells, 3 days incubation, read-out: EC50
# [5] = Hepatitis B virus, HepG2.117, 72 h
# [6] = HBV DNA inhibition, HepG2.117 cells, 3 days incubation, read-out: EC50
Compound,"EC50 [1, 4] [µM]",CC50 at 3 days [2] [µM],"EC50 [1, 5] [µM]","EC50 [1, 6] [µM]",CC50 [3] [µM]
"CNC(=O)c1ccc(-n2c(-c3cccc(C(C)C)n3)nc3c(c2=O)C[C@@H](C)N(C(=O)c2ccc(Br)c(C(F)(F)F)c2)C3)cc1 [Compound 8, (R)-4-(7-(4-bromo-3-(trifluoromethyl)benzoyl)-2-(6-isopropylpyridin-2-yl)-6-methyl-4-oxo-5,6,7,8-tetrahydropyrido[3,4-d]pyrimidin-3(4H)-yl)-N-methylbenzamide]",< 0.05,30,,,
"COc1ccc(-n2c(-c3ccccc3)nc3c(c2=O)CCN(C(=O)c2ccc(Br)c(C(F)(F)F)c2)C3)cc1 [Compound 7, 7-(4-bromo-3-(trifluoromethyl)benzoyl)-3-(4-methoxyphenyl)-2-phenyl-5,6,7,8-tetrahydropyrido[3,4-d]pyrimidin-4(3H)-one]",,> 0.5,0.5 to 5,,
"CNC(=O)c1ccc(-n2c(C3CCN(C(=O)OC(C)(C)C)C3)nc3c(c2=O)CC(C)N(C(=O)c2ccc(Br)c(C(F)(F)F)c2)C3)cc1 (stereo not drawn) [Compound 17, t-butyl 3-(7-(4-bromo-3-(trifluoromethyl)benzoyl)-6-methyl-3-(4-(methylcarbamoyl)phenyl)-4-oxo-3,4,5,6,7,8-hexahydropyrido[3,4-d]pyrimidin-2-yl)pyrrolidine-1-carboxylate]",0.05 to 0.5,24.2,,,
"CNC(=O)c1ccc(-n2c(NCc3ccccc3-c3ccccn3)nc3c(c2=O)C[C@@H](C)N(C(=O)c2ccc(Br)c(C(F)(F)F)c2)C3)c(Cl)c1 (single isomer, unassigned) [Compound 1b]",,,,< 0.05,> 50
"CNC(=O)c1ccc(-n2c(N(Cc3ccccc3)C3CCC3)nc3c(c2=O)C[C@@H](C)N(C(=O)c2ccc(Br)c(C(F)(F)F)c2)C3)cc1 [Compound 5, (R)-4-(2-(benzyl(cyclobutyl)amino)-7-(4-bromo-3-(trifluoromethyl)benzoyl)-6-methyl-4-oxo-5,6,7,8-tetrahydropyrido[3,4-d]pyrimidin-3(4H)-yl)-N-methylbenzamide]",,> 0.5,< 0.05,,
CCc1ccn(-c2nc3c(c(=O)n2-c2ccc(C(=O)NC)cc2)C[C@@H](C)N(C(=O)c2ccc(Br)c(C(F)(F)F)c2)C3)n1 [Compound 15],< 0.05,> 50,,,
CNC(=O)c1ccc(-n2c(-n3cc(CC(C)C)cn3)nc3c(c2=O)C[C@@H](C)N(C(=O)c2ccc(Br)c(C(F)(F)F)c2)C3)cc1 [Compound 16],0.05 to 0.5,> 50,,,
"CNC(=O)c1ccc(-n2c(NCc3ccccc3-c3ccccn3)nc3c(c2=O)C[C@@H](C)N(C(=O)c2ccc(Br)c(C(F)(F)F)c2)C3)c(Cl)c1 (single isomer, unassigned) [Compound 1a]",< 0.05,> 50,,,
"CNC(=O)c1ccc(-n2c(-n3ccc(C(C)C)n3)nc3c(c2=O)C[C@@H](C)N(C(=O)c2ccc(Br)c(C(F)(F)F)c2)C3)cc1 [Compound 2, (R)-4-(7-(4-bromo-3-(trifluoromethyl)benzoyl)-2-(3-isopropyl-1H-pyrazol-1-yl)-6-methyl-4-oxo-5,6,7,8-tetrahydropyrido[3,4-d]pyrimidin-3(4H)-yl)-N-methylbenzamide]",< 0.05,> 50,,,
CNC(=O)c1ccc(-n2c(-n3ccc(CC(C)C)n3)nc3c(c2=O)C[C@@H](C)N(C(=O)c2ccc(Br)c(C(F)(F)F)c2)C3)cc1 [Compound 14],< 0.05,> 50,,,
"CNC(=O)c1ccc(-n2c([C@@H]3CCCN3C(C)C)nc3c(c2=O)CC(C)N(C(=O)c2ccc(Br)c(C(F)(F)F)c2)C3)cc1 (single isomer, unassigned) [Compound 11b]",,,,0.5 to 5,> 50
"CCN1CCC(c2nc3c(c(=O)n2-c2ccc(C(=O)NC)cc2)CC(C)N(C(=O)c2ccc(Br)c(C(F)(F)F)c2)C3)C1 (stereo not drawn) [Compound 18, 4-(7-(4-bromo-3-(trifluoromethyl)benzoyl)-2-(1-ethylpyrrolidin-3-yl)-6-methyl-4-oxo-5,6,7,8-tetrahydropyrido[3,4-d]pyrimidin-3(4H)-yl)-N-methylbenzamide]",> 5,> 50,,,
"CNC(=O)c1ccc(-n2c(N(Cc3ccccc3)C3CC(F)(F)C3)nc3c(c2=O)C[C@@H](C)N(C(=O)c2ccc(Br)c(C(F)(F)F)c2)C3)cc1 [Compound 3, (R)-4-(2-(benzyl(3,3-difluorocyclobutyl)amino)-7-(4-bromo-3-(trifluoromethyl)benzoyl)-6-methyl-4-oxo-5,6,7,8-tetrahydropyrido[3,4-d]pyrimidin-3(4H)-yl)-N-methylbenzamide]",< 0.05,> 50,,,
"CNC(=O)c1ccc(-n2c(N(CC3CC3)c3ccccc3)nc3c(c2=O)C[C@@H](C)N(C(=O)c2ccc(Br)c(C(F)(F)F)c2)C3)cc1 [Compound 12, (R)-4-(7-(4-bromo-3-(trifluoromethyl)benzoyl)-2-((cyclopropylmethyl)(phenyl)amino)-6-methyl-4-oxo-5,6,7,8-tetrahydropyrido[3,4-d]pyrimidin-3(4H)-yl)-N-methylbenzamide]",< 0.05,10.8,,,
"CNC(=O)c1ccc(-n2c([C@@H]3CCCN3C(C)C)nc3c(c2=O)CC(C)N(C(=O)c2ccc(Br)c(C(F)(F)F)c2)C3)cc1 (single isomer, unassigned) [Compound 11a]",0.5 to 5,> 50,,,
CNC(=O)c1ccc(-n2c(-n3ccc(C)n3)nc3c(c2=O)C[C@@H](C)N(C(=O)c2ccc(Br)c(C(F)(F)F)c2)C3)cc1 [Compound 19],< 0.05,> 50,,,
"CNC(=O)c1ccc(-n2c(N(Cc3ccccc3)C3CN(C)C3)nc3c(c2=O)C[C@@H](C)N(C(=O)c2ccc(Br)c(C(F)(F)F)c2)C3)cc1 [Compound 13, (R)-4-(2-(benzyl(1-methylazetidin-3-yl)amino)-7-(4-bromo-3-(trifluoromethyl)benzoyl)-6-methyl-4-oxo-5,6,7,8-tetrahydropyrido[3,4-d]pyrimidin-3(4H)-yl)-N-methylbenzamide]",0.5 to 5,27,,,
"CNC(=O)c1ccc(-n2c(-n3cccn3)nc3c(c2=O)C[C@@H](C)N(C(=O)c2ccc(Br)c(C(F)(F)F)c2)C3)cc1 [Compound 6, (R)-4-(7-(4-bromo-3-(trifluoromethyl)benzoyl)-6-methyl-4-oxo-2-(1H-pyrazol-1-yl)-5,6,7,8-tetrahydropyrido[3,4-d]pyrimidin-3(4H)-yl)-N-methylbenzamide]",< 0.05,> 50,,,
"CNC(=O)c1ccc(-n2c(-n3cc(C4CC4)cn3)nc3c(c2=O)C[C@@H](C)N(C(=O)c2ccc(Br)c(C(F)(F)F)c2)C3)cc1 [Compound 9, (R)-4-(7-(4-bromo-3-(trifluoromethyl)benzoyl)-2-(4-cyclopropyl-1H-pyrazol-1-yl)-6-methyl-4-oxo-5,6,7,8-tetrahydropyrido[3,4-d]pyrimidin-3(4H)-yl)-N-methylbenzamide]",0.05 to 0.5,27.8,,,
"CNC(=O)c1ccc(-n2c(-n3ccc(C4CC4)n3)nc3c(c2=O)C[C@@H](C)N(C(=O)c2ccc(Br)c(C(F)(F)F)c2)C3)cc1 [Compound 10, (R)-4-(7-(4-bromo-3-(trifluoromethyl)benzoyl)-2-(3-cyclopropyl-1H-pyrazol-1-yl)-6-methyl-4-oxo-5,6,7,8-tetrahydropyrido[3,4-d]pyrimidin-3(4H)-yl)-N-methylbenzamide]",< 0.05,> 50,,,
"CNC(=O)c1ccc(-n2c(N(Cc3ccccc3)CC3CC3)nc3c(c2=O)C[C@@H](C)N(C(=O)c2ccc(Br)c(C(F)(F)F)c2)C3)cc1 [Compound 4, (R)-4-(2-(benzyl(cyclopropylmethyl)amino)-7-(4-bromo-3-(trifluoromethyl)benzoyl)-6-methyl-4-oxo-5,6,7,8-tetrahydropyrido[3,4-d]pyrimidin-3(4H)-yl)-N-methylbenzamide]",< 0.05,> 50,,,
